For data set [1], the system named is mice. In words: Glucose tolerance test (GTT). Type of data set: in vivo, mouse. The conditions noted are these: 24 h GTT, s.c., percent of vehicle. The method in brief:
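Compounds diluted in PBS from 1 mM DMSO stocks and given subcutaneously 15 min (5-6 h fast), 4 h (16 h overnight fast), 16 h or 24 h before intraperitoneal glucose (2 g/kg). Tail blood glucose read at 10–120 min post-glucose, at least 6 mice per time-point. Glucose AUC over time determined.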

Data set [2] concerns the target T1, GLP-1R (Homo sapiens, UniProt P43220). Kind of data set: PathHunter β-arrestin assay. It counts as cell-based. The method in brief: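 Cells (5,000/well) plated overnight, then exposed to a 22-point 2-fold agonist dilution series in medium with 0.2% BSA for 90 min at 37 °C, 5% CO2. PathHunter detection reagent added; after 3 h at room temperature in the dark, luminescence read.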

The target of data set [3] is T1, GLP-1R. In words: HitHunter cAMP assay (GLP-1R). The conditions noted are these: cAMP; for EC50: EC50 GLP-1R/nM; for Emax: read-out: (Emax) GLP-1R. Type of data set: cell-based. The procedure, abridged:
(§1)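 Suspension cells (10,000/well) in HBSS with 10 mM HEPES, 625 μM IBMX, 0.2% BSA exposed to 22-point 2-fold agonist series in duplicate for 30 min at room temperature. cAMP measured by antibody immunocompetition with overnight development, luminescence read-out.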

In data set [4] the test system is mice. Kind of data set: Conditioned taste aversion (CTA) in mice. Type of data set: in vivo, mouse. The conditions noted are these: s.c., 30 nmol/kg, saccharine preference vs vehicle. As to the method: A value of CTA=0.0-0.6 indicates significant aversion to a compound. The conditioned taste aversion assay measures the preference for a dilute saccharin solution that is associated with compound administration.
One week before start of experiment (Day-7), animals were transferred to single house double grommet cages. A 50 ml water bottle was placed, and consistently replaced when refilled in the same grommet to habituate the animal to a “water” side. After 7 days of baseline water consumption, animals began the taste preference procedure. On Day 1, the animals were weighed and deprived of water at […]. On acquisition day (Day 2), mice had access to a single bottle containing 0.15% saccharin solution, on the opposite side to the “water” habituated side and allowed to consume for 3 h, from 6 pm until 9 pm. The saccharine bottles were then removed and weighed to record the 3 h consumption. […] On Day 3, the water was removed and weighed at 6 pm. On Day 4, both saccharine and water bottles were weighed and returned simultaneously to respective grommet at 6 pm. On Day 5, the bottles were removed at 6 pm and weighed. Saccharine consumption was measured as a percent of the total amount of fluid consumed. The reduction of saccharin consumption during the retrieval was used as a measure of CTA strength. Liraglutide and semaglutide were used as positive controls.

Data set [5] addresses T2, GIP-R (Homo sapiens, UniProt P48546).
T2 sequence (P48546 22-466): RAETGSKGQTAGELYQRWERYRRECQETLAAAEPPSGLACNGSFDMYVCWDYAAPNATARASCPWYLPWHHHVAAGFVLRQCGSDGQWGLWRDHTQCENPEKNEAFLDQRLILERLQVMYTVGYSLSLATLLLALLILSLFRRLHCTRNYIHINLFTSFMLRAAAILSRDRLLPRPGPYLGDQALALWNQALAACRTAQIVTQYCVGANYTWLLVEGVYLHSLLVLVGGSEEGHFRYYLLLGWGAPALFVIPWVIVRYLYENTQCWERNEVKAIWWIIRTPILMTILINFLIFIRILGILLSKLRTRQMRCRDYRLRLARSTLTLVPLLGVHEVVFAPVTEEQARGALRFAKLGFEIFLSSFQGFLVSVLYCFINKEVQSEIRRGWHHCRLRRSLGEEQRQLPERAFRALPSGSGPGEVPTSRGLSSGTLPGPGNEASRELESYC
Kind of data set: HitHunter cAMP assay (GIP-R). Type of data set: cell-based. The conditions noted are these: cAMP; for EC50: EC50 GIP-R/nM; for Emax: read-out: (Emax) GIP-R. The procedure, abridged: as §1
In general terms: Cyclic AMP is a second messenger, typically raised through Gs and lowered through Gi signalling.

Where two headings read alike, the source gives them in different places. A value given as a limit tells only on which side of the number the result lay.

T1 sequence (P43220 24-463): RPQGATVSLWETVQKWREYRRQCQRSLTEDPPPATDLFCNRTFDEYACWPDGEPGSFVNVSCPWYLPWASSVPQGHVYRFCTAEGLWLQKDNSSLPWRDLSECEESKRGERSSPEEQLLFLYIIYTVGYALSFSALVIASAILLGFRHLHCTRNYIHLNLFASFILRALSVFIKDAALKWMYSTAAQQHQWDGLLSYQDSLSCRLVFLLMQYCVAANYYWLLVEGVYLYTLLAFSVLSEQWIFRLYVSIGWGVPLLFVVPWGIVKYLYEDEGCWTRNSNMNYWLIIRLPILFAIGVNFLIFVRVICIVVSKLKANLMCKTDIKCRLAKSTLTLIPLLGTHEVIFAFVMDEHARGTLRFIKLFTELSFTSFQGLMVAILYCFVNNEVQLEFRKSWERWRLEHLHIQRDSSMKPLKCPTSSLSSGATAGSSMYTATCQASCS

On to `CCCCCCCCCCCCCCCC(=O)N[C@@H](CCC(=O)NCCCC[C@H](NC(=O)[C@H](CO)NC(=O)[C@@H]1CCCN1C(=O)[C@@H]1CCCN1C(=O)[C@@H]1CCCN1C(=O)[C@H](C)NC(=O)CNC(=O)[C@H](CO)NC(=O)[C@H](CO)NC(=O)[C@@H]1CCCN1C(=O)CNC(=O)CNC(=O)[C@H](C)NC(=O)[C@H](CC(C)C)NC(=O)[C@H](CC(C)C)NC(=O)[C@H](Cc1c[nH]c2ccccc12)NC(=O)[C@H](CC(N)=O)NC(=O)[C@@H](NC(=O)[C@H](Cc1ccccc1)NC(=O)[C@H](CCC(=O)O)NC(=O)C(C)(C)NC(=O)[C@H](C)NC(=O)[C@H](C)NC(=O)[C@H](CCC(N)=O)NC(=O)[C@H](CCCCN)NC(=O)[C@H](CC(=O)O)NC(=O)[C@H](CC(C)C)NC(=O)[C@H](Cc1ccc(O)cc1)NC(=O)[C@@H](NC(=O)[C@H](CO)NC(=O)[C@H](Cc1ccc(O)cc1)NC(=O)[C@H](CC(=O)O)NC(=O)[C@H](CO)NC(=O)[C@@H](NC(=O)[C@H](Cc1ccccc1)NC(=O)[C@@H](NC(=O)CNC(=O)[C@H](CCC(=O)O)NC(=O)CSCC(=O)NCCN1C(=O)[C@@H](C)[C@@H](C)C1=O)[C@@H](C)O)[C@@H](C)O)[C@@H](C)CC)C(C)C)C(N)=O)C(=O)O` [Compound 96], for which the AUC score in data set [1] (dose range 5.1-15 nmol/kg) was 4 (AUC score 4 = 76-100%). For the same molecule, the half-maximal effective concentration (EC50) (usually the concentration giving half of the maximal effect) was over 1000 nM in data set [2]; 1 to 10 nM in data set [3] (Table 3); 1 to 10 nM in data set [3] (Table 3A); 0.1 to 1 nM in data set [5] (Table 3); 0.1 to 1 nM in data set [5] (Table 3A). Further, the Emax – broadly, the greatest response seen or fitted, relative to the assay's reference – in data set [3] (Table 3) amounted to 94%; in data set [3] (Table 3A), 94%; in data set [5] (Table 3) it was 90%; in data set [5] (Table 3A), 90%. Further, the CTA score in data set [4] was 4 (Score 4 = 76-100%).

In the case of `CCCCCCCCCCCCCCCC(=O)N[C@@H](CCC(=O)NCCCC[C@H](NC(=O)[C@H](CO)NC(=O)[C@@H]1CCCN1C(=O)[C@@H]1CCCN1C(=O)[C@@H]1CCCN1C(=O)[C@H](C)NC(=O)CNC(=O)[C@H](CO)NC(=O)[C@H](CO)NC(=O)[C@@H]1CCCN1C(=O)CNC(=O)CNC(=O)[C@H](C)NC(=O)[C@H](CC(C)C)NC(=O)[C@H](CC(C)C)NC(=O)[C@H](Cc1c[nH]c2ccccc12)NC(=O)[C@H](CC(N)=O)NC(=O)[C@@H](NC(=O)[C@H](Cc1ccccc1)NC(=O)[C@H](CCC(=O)O)NC(=O)C(C)(C)NC(=O)[C@H](C)NC(=O)[C@H](C)NC(=O)[C@H](CCC(N)=O)NC(=O)[C@H](CCCCN)NC(=O)[C@H](CC(=O)O)NC(=O)[C@H](CC(C)C)NC(=O)[C@H](Cc1ccc(O)cc1)NC(=O)[C@@H](NC(=O)[C@H](CO)NC(=O)[C@H](Cc1ccc(O)cc1)NC(=O)[C@H](CC(=O)O)NC(=O)[C@H](CO)NC(=O)[C@@H](NC(=O)[C@H](Cc1ccccc1)NC(=O)[C@@H](NC(=O)CNC(=O)[C@H](CCC(=O)O)NC(=O)CSCC(=O)NCCN1C(=O)C[C@H](C)C1=O)[C@@H](C)O)[C@@H](C)O)[C@@H](C)CC)C(C)C)C(N)=O)C(=O)O` [Compound 91], the AUC score in data set [1] (dose range 2-5 nmol/kg) was 3 (AUC score 3 = 51-75%). Besides, the concentration giving a half-maximal response (EC50) in data set [2] was over 1000 nM; in data set [3] (Table 3), 1 to 10 nM; in data set [3] (Table 3A), 1 to 10 nM; in data set [5] (Table 3), 1 to 10 nM; in data set [5] (Table 3A) it was 1 to 10 nM. For the same molecule, the Emax amounted to 98% in data set [3] (Table 3), 98% in data set [3] (Table 3A), 85% in data set [5] (Table 3) and 85% in data set [5] (Table 3A). The CTA score in data set [4] is 4 (Score 4 = 76-100%).

For the origin of these results see US20260176320A1, “MODULATORS OF G-PROTEIN COUPLED RECEPTORS” (priority 2018, published 2026).
